Laboratory results taken from patent publication EP0131252B1, “Thymosin alpha 11” (F. HOFFMANN-LA ROCHE AG, priority 1983, dated 1989).

Tests used:
[1] = tested on: T cell differentiation and function; test: In vivo assay systems designed to measure T cell differentiation and function
Excerpt: The present invention relates to the isolation and first complete structural determination of a new polypeptide (thymosin α11 ) isolated from thymosin fraction 5, to pharmaceutically acceptable acid and base addition salts thereof and to pharmaceutical compositions containing this compound or its salts.

[2] = tested on: Candida albicans; test: Protection of mice against infection with Candida albicans (daily i.p. treatment, intravenous challenge); format: in vivo
Excerpt: The biological activity of thymosin a1 can be determined by utilizing in vivo assays known in the art. Thus, for example, inbred strains of mice are known to vary in their susceptibility to infection with C. albicans. Thus, mice of such strains as C3 H/HeJ or CBA/CaJ are highly susceptible to infection, whereas mice of such strains as C57 BI/10SNJ or C57BI/KsJ were highly resistant to challenge. Since resistance to infection with C. albicans is associated with cell-mediated processes, and therefore with T-lymphocytes, thymic hormones should have an effect on the host response.
Thymosin fraction 5, thymosin a1 or α11 was injected daily i.p. in graded doses into three different groups of mice, beginning two days before intravenous challenge with 4x10^4 cells of Candida albicans.
Mice were treated daily with the indicated doses of thymosin fraction 5, thymosin a1 or thymosin α11 and challenged with 4x 10^4 cells of C. a/bicans two days after the start of treatment
^* Three mice from each set were sacrificed on days 7,14 and 21 after infection and the values represent
the average number of organisms in the left kidneys of the nine mice in each set.

## AcSer-Asp-Ala-Ala-Val-Asp-Thr-Ser-Ser-Glu-ile-Thr-Thr-Lys-Asp-Leu-Lys-Glu-Lys-Lys-Glu-Val-Val-Glu-Glu-Ala-Glu-Asn-Gly-Arg-Glu-Ala-Pro-Ala-AsnOH [thymosin α11]
[1]
  biological activity compared with thymosin a1: same qualitative and quantitative biological activity as thymosin a1
[2]; compared on optimum daily doses
  potency relative to fraction 5 in ability to induce resistance to infection with C. albicans: about 30 times
[2]; i.p., daily, resistance to infection with C. albicans
  daily doses at which most active: 160-320 ng per mouse
[2]; injected daily i.p. in graded doses, beginning two days before intravenous challenge with 4x10^4 cells of Candida albicans
  protection in comparison with control mice: provided protection
[2]; resistance to infection with C. albicans
  potency of thymosin a1 and thymosin α11 relative to each other: approximately equal in potency
